Measured values from US20250019387A1 (Frontier Medicines Corporation, priority 0001, published 2025).

What follows are compounds tested against KRAS G12C and cRAF (Ras-binding domain) interaction (Homo sapiens (Human), UniProt P01116, C118S/C51S/C80L/G12C) (assay: Inhibition of KRAS G12C and cRAF binding (AlphaScreen)). Conditions: GMPPNP-loaded KRAS G12C, 19-20 hours incubation with compound; read-out: IC50 (Inhibition of KRAS G12C and cRAF Binding).
Sequence of KRAS G12C and cRAF (Ras-binding domain) interaction (P01116 other isoform, or with tags, fused parts or gaps G12C/C51S/C80L/C118S): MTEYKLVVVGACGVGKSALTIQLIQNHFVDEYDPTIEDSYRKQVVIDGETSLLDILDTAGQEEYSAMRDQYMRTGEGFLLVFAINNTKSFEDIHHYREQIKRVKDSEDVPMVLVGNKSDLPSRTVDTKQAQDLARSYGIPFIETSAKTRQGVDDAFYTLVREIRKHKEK
Summary of the method: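 IC50 values come from 4-parameter nonlinear regression of AlphaScreen signal (680 nm excitation, 570 nm emission). Compound plates sat 19-20 h at room temperature before RBD and donor/acceptor beads were added in Hepes pH 7.4 buffer with 150 mM NaCl, 5 mM MgCl2, 2% DMSO for 60-90 min; biotin-AviTag-GST replaced RBD to flag assay-technology interferers.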
Work on `C#Cc1c(F)ccc2cccc(-c3ncc4c(N(C)[C@@H]5CCN(C(=O)/C=C/CN6CC[C@H](F)C6)C5)nc(OC[C@@]56CCCN5C[C@H](F)C6)nc4c3F)c12` [Example 288, (E)-1-((R)-3-((7-(8-ethynyl-7-fluoronaphthalen-1-yl)-8-fluoro-2-(((2R,7aS)-2-fluorotetrahydro-1H-pyrrolizin-7a(5H)-yl)methoxy)pyrido[4,3-d]pyrimidin-4-yl)(methyl)amino)pyrrolidin-1-yl)-4-((S)-3-fluoropyrrolidin-1-yl)but-2-en-1-one] yielded an IC50 of 10 to 100 nM.
For `CN(c1nc(OCC23CCCN2CCC3)nc2c1CCN(c1cccc3cccc(Cl)c13)C2)[C@@H]1CCN(C(=O)/C=C/c2nc(C3(C)CC3)no2)C1` [Example 128, (R,E)-1-(3-((7-(8-chloronaphthalen-1-yl)-2-((hexahydro-1H-pyrrolizin-7a-yl)methoxy)-5,6,7,8-tetrahydropyrido[3,4-d]pyrimidin-4-yl)(methyl)amino)pyrrolidin-1-yl)-3-(3-(1-methylcyclopropyl)-1,2,4-oxadiazol-5-yl)prop-2-en-1-one], the IC50 was 100 to 500 nM.
`C=CC(=O)N1CC(CN(C)c2nc(OC[C@@]34CCCN3C[C@H](F)C4)nc3c(F)c(-c4cccc5ccc(F)c(F)c45)ncc23)C1` [Example 246, 1-(3-(((7-(7,8-difluoronaphthalen-1-yl)-8-fluoro-2-(((2R,7aS)-2-fluorotetrahydro-1H-pyrrolizin-7a(5H)-yl)methoxy)pyrido[4,3-d]pyrimidin-4-yl)(methyl)amino)methyl)azetidin-1-yl)prop-2-en-1-one] was tested, and the IC50 was 10 to 100 nM.
`Cc1nsc(/C=C/C(=O)N2C[C@H](F)[C@@H](N(C)c3nc(OC[C@@]45CCCN4C[C@H](F)C5)nc4c(F)c(-c5cccc6cccc(Cl)c56)ncc34)C2)n1` [Example 215, (E)-1-((3S,4S)-3-((7-(8-chloronaphthalen-1-yl)-8-fluoro-2-(((2R,7aS)-2-fluorohexahydro-1H-pyrrolizin-7a-yl)methoxy)pyrido[4,3-d]pyrimidin-4-yl)(methyl)amino)-4-fluoropyrrolidin-1-yl)-3-(3-methyl-1,2,4-thiadiazol-5-yl)prop-2-en-1-one] showed an IC50 of 100 to 500 nM.
Work on `CN(c1nc(OC[C@@]23CCCN2C[C@H](F)C3)nc2c(F)c(-c3cccc4ccc(F)c(Cl)c34)ncc12)[C@@H]1CCN(C(=O)/C=C/CN2CCOCC2)C1` [Example 96, (E)-1-((R)-3-((7-(8-chloro-7-fluoronaphthalen-1-yl)-8-fluoro-2-(((2R,7aS)-2-fluorotetrahydro-1H-pyrrolizin-7a(5H)-yl)methoxy)pyrido[4,3-d]pyrimidin-4-yl)(methyl)amino)pyrrolidin-1-yl)-4-morpholinobut-2-en-1-one] yielded an IC50 of 100 to 500 nM.
`C=CC(=O)N1CC[C@@H](N(C)c2nc(OC[C@@]34CCCN3C[C@H](F)C4)nc3c(F)c(-c4cccc5cccc(C6CC6)c45)ncc23)C1` [Example 304, 1-((R)-3-((7-(8-cyclopropylnaphthalen-1-yl)-8-fluoro-2-(((2R,7aS)-2-fluorotetrahydro-1H-pyrrolizin-7a(5H)-yl)methoxy)pyrido[4,3-d]pyrimidin-4-yl)(methyl)amino)pyrrolidin-1-yl)prop-2-en-1-one] was tested, and the IC50 was greater than 500 nM.
For `CN(c1nc(OC[C@@]23CCCN2C[C@H](F)C3)nc2c(F)c(-c3cccc4cccc(Cl)c34)ncc12)[C@@H]1CCN(C(=O)/C=C/c2nc(C(C)(C)O)no2)C1` [Example 107, (E)-1-((R)-3-((7-(8-chloronaphthalen-1-yl)-8-fluoro-2-(((2R,7aS)-2-fluorotetrahydro-1H-pyrrolizin-7a(5H)-yl)methoxy)pyrido[4,3-d]pyrimidin-4-yl)(methyl)amino)pyrrolidin-1-yl)-3-(3-(2-hydroxypropan-2-yl)-1,2,4-oxadiazol-5-yl)prop-2-en-1-one], the IC50 was less than 10 nM.
Work on `C#Cc1c(F)ccc2cccc(-c3ncc4c(N(C)[C@@H]5CCN(C(=O)C=C)C5)nc(OC[C@]56CCCN5C[C@H](F)C6)nc4c3F)c12` [Example 305, 1-((R)-3-((7-(8-ethynyl-7-fluoronaphthalen-1-yl)-8-fluoro-2-(((2R,7aR)-2-fluorotetrahydro-1H-pyrrolizin-7a(5H)-yl)methoxy)pyrido[4,3-d]pyrimidin-4-yl)(methyl)amino)pyrrolidin-1-yl)prop-2-en-1-one] yielded an IC50 of 10 to 100 nM.
`CN(CCC1CN(C#N)C1)c1nc(OC[C@@H]2CCCN2C)nc2c1CCN(c1cccc3cccc(Cl)c13)C2` [Example 34, (S)-3-(2-((7-(8-chloronaphthalen-1-yl)-2-((l-methylpyrrolidin-2-yl)methoxy)-5,6,7,8-tetrahydropyrido[3,4-d]pyrimidin-4-yl)(methyl)amino)ethyl)azetidine-1-carbonitrile] was tested, and the IC50 was 100 to 500 nM.
Compound `CN(c1nc(OC[C@@]23CCCN2C[C@H](F)C3)nc2c(F)c(-c3cccc4cccc(Cl)c34)ncc12)[C@@H]1CCN(C(=O)/C=C/c2nc(C3(C)COC3)no2)C1` [Example 95, (E)-1-((R)-3-((7-(8-chloronaphthalen-1-yl)-8-fluoro-2-(((2R,7aS)-2-fluorotetrahydro-1H-pyrrolizin-7a(5H)-yl)methoxy)pyrido[4,3-d]pyrimidin-4-yl)(methyl)amino)pyrrolidin-1-yl)-3-(3-(3-methyloxetan-3-yl)-1,2,4-oxadiazol-5-yl)prop-2-en-1-one] has an IC50 of less than 10 nM.
`CN(c1nc(OC[C@@]23CCCN2C[C@H](F)C3)nc2c1CCN(c1cccc3cccc(Cl)c13)C2)[C@@H]1CCN(C(=O)/C=C/c2nc(C(C)(C)C)no2)C1` [Example 148, (E)-3-(3-(tert-butyl)-1,2,4-oxadiazol-5-yl)-1-((R)-3-((7-(8-chloronaphthalen-1-yl)-2-(((2R,7aS)-2-fluorohexahydro-1H-pyrrolizin-7a-yl)methoxy)-5,6,7,8-tetrahydropyrido[3,4-d]pyrimidin-4-yl)(methyl)amino)pyrrolidin-1-yl)prop-2-en-1-one] showed an IC50 of 100 to 500 nM.
In the case of `C=CC(=O)C1CN(c2nc(OC[C@@H]3CCCN3C)nc3c2CCN(c2cccc4cccc(Cl)c24)C3)C1` [Example 41, (S)-1-(1-(7-(8-chloronaphthalen-1-yl)-2-((1-methylpyrrolidin-2-yl)methoxy)-5,6,7,8-tetrahydropyrido[3,4-d]pyrimidin-4-yl)azetidin-3-yl)prop-2-en-1-one], the IC50 is reported as 10 to 100 nM.

Same assay, conditions: additional exemplary compounds; KRAS G12C and cRAF binding; read-out: RAF1 RBD IC50
With `Cc1nsc(/C=C/C(=O)N2C[C@@H](F)[C@H](N(C)c3nc(OC[C@@]45CCCN4C[C@H](F)C5)nc4c(F)c(-c5cccc6cccc(Cl)c56)ncc34)C2)n1` the IC50 was greater than 500 nM.
With `C=CC(=O)N1CC[C@@H](N(C)c2nc(OC[C@@]34CCCN3C[C@@H](F)C4)nc3c2CCN(c2cccc4cccc(Cl)c24)C3)C1` the IC50 was greater than 500 nM.
Compound `C=CC(=O)CCN(C)c1nc(OCC2CCN2C)nc2c1CCN(c1cccc3cccc(Cl)c13)C2` (stereo not drawn) has an IC50 of 10 to 100 nM.
Compound `C/C=C/C(=O)CN(C)c1nc(OC[C@@H]2CCCN2C)nc2c1CCN(c1cccc3ccccc13)C2` has an IC50 greater than 500 nM.
In the case of `C=CC(=O)N1CC[C@@H](F)[C@@H](N(C)c2nc(OC[C@@]34CCCN3C[C@H](F)C4)nc3c(F)c(-c4cccc5cccc(Cl)c45)ncc23)C1`, the IC50 is reported as greater than 500 nM.
In the case of `C=CC(=O)N1CC[C@@H](N(C)c2nc(OC[C@@]34CCCN3C[C@H](F)C4)nc3c(F)c(-c4cccc5cccc(Cl)c45)ncc23)C1`, the IC50 is reported as 10 to 100 nM.
